Tested on: MELANODERM™ MEL-300B tissue constructs
Experiment: Overall Melanin Level Assay (MELANODERM skin analog, Solvable Melanin Assay)
Format: cell-based, human
Conditions: for Absorbance (relative melanin content): MEL-300B tissue (donors with black complexion), 25 μl applied every other day for 10 days, read at 490 nm, 2% kojic acid solution, 0.4% hydroquinone solution, formulation of Table 1, untreated control 0.927
Procedure: This bioassay was used to analyze the effect of compounds on melanogenesis. […] The endpoint of this assay was spectrophotometric measurement of melanin production and cellular viability of tissue constructs derived from donors. The skin lightening efficacy of the formulation in Table 1 was evaluated using a skin analog sold by MatTek Corp. under the tradename MELANODERM™. Tissue constructs derived from donors with a black complexion (MELANODERM™ MEL-300B) were used. Tissue constructs derived from people with a black complexion have melanocytes with increased pigmentation versus those of people with a white or brown complexion melanocytes. MEL-300B tissue inserts were placed into the wells of 12-well plates filled with maintenance medium and pre-equilibrated in a humidified 37° C., 5% CO2 incubator overnight prior to applying treatment. After removal of the pre-equilibration medium, 25 μl of the formulation of Table 1 was applied directly to the MEL-300B stratum corneum by pipetting with a positive displacement pipette into the cell culture insert which contained the MEL-300B tissue inserts. Treatments were done in triplicates. 25 μl of 2% Kojic Acid (KA) solution and 25 μl of 0.4% Hydroquinone (HQ) solution were used as positive controls and 25 μl of sterile ultrapure water served as negative control. The MEL-300B tissue inserts were treated every other day for 10 consecutive days. Maintenance medium was replaced every other day with fresh medium. After treatment, the MEL-300B tissue inserts were submerged in phosphate buffered saline (PBS) for 10 minutes to remove any residual phenol red and test article from the tissue. After the MEL-300B tissue inserts were rinsed off, viability was measured on one of the tissues using the MTT viability assay (MTT Kit part #: MTT-100). The relative melanin content was measured using the Solvable Melanin Assay. Briefly, the tissues were removed from the inserts using fine-point forceps. Each tissue was blotted dry and placed in a 1.7 ml microfuge tube. […] Absorbance of the plate was read at 490 nm.

Row | SMILES | effect on melanin compared to untreated control / positive control (in words) (MEL-300B tissue (dark skin model), topical application) | Absorbance (relative melanin content)
1 | Oc1ccc(O)cc1 [Hydroquinone] | increase melanin compared to the untreated control | 1.222
2 | O=c1cc(CO)occ1O [Kojick Acid, Kojic Acid] |  | 0.629

Reference: patent US11779532B2, “Topical compositions and methods” (Mary Kay Inc., priority 2020, dated 2023)
